Experiment: refractive index (Na D-line) (dimensionless); xn = mol fraction of the nth substance listed
Settings: 101 kPa, Liquid, Standard Abbe refractometry

CNCCO [2-(methylamino)ethanol] + O
refractive index
Settings | 293.15 K | 298.15 K | 303.15 K | 308.15 K | 313.15 K | 318.15 K | 323.15 K
x1 = 0.0493 | 1.3559 | 1.3552 | 1.3544 | 1.3536 | 1.3527 | 1.3517 | 1.3507
x1 = 0.0657 | 1.3625 | 1.3617 | 1.3608 | 1.3599 | 1.3589 | 1.3579 | 1.3568
x1 = 0.1054 | 1.3767 | 1.3754 | 1.3744 | 1.3732 | 1.372 | 1.3708 | 1.3696
x1 = 0.1987 | 1.3997 | 1.3983 | 1.3967 | 1.3956 | 1.394 | 1.3921 | 1.3907
x1 = 0.301 | 1.4151 | 1.4137 | 1.412 | 1.4105 | 1.4091 | 1.4074 | 1.4055
x1 = 0.3834 | 1.4235 | 1.4218 | 1.4201 | 1.4186 | 1.417 | 1.4151 | 1.4134
x1 = 0.5041 | 1.4288 | 1.4272 | 1.4253 | 1.4239 | 1.4221 | 1.4204 | 1.4187
x1 = 0.6 | 1.4324 | 1.4306 | 1.4289 | 1.4272 | 1.4254 | 1.4238 | 1.422
x1 = 0.6974 | 1.4347 | 1.4329 | 1.4311 | 1.4294 | 1.4275 | 1.4257 | 1.4239
x1 = 0.8008 | 1.4366 | 1.4348 | 1.433 | 1.4313 | 1.4293 | 1.4274 | 1.4257
x1 = 0.9031 | 1.4381 | 1.4363 | 1.4344 | 1.4328 | 1.4306 | 1.4288 | 1.4268
x1 = 1 | 1.4393 | 1.4375 | 1.4356 | 1.4339 | 1.4318 | 1.4298 | 1.4278

Reference: the NIST ThermoML archive (doi:10.1021/je060457+)
